From US11524966B1 (Valo Early Discovery, Inc., priority 2017, dated 2022)
Where two headings read alike, the source gives them in different places.

Target: T1, USP25 (USP25-His6, Boston Biochem E-546) (Homo sapiens, UniProt Q9UHP3)
T1 construct: His6; purchased Boston Biochem E-546
T1 sequence (Q9UHP3 1-1055): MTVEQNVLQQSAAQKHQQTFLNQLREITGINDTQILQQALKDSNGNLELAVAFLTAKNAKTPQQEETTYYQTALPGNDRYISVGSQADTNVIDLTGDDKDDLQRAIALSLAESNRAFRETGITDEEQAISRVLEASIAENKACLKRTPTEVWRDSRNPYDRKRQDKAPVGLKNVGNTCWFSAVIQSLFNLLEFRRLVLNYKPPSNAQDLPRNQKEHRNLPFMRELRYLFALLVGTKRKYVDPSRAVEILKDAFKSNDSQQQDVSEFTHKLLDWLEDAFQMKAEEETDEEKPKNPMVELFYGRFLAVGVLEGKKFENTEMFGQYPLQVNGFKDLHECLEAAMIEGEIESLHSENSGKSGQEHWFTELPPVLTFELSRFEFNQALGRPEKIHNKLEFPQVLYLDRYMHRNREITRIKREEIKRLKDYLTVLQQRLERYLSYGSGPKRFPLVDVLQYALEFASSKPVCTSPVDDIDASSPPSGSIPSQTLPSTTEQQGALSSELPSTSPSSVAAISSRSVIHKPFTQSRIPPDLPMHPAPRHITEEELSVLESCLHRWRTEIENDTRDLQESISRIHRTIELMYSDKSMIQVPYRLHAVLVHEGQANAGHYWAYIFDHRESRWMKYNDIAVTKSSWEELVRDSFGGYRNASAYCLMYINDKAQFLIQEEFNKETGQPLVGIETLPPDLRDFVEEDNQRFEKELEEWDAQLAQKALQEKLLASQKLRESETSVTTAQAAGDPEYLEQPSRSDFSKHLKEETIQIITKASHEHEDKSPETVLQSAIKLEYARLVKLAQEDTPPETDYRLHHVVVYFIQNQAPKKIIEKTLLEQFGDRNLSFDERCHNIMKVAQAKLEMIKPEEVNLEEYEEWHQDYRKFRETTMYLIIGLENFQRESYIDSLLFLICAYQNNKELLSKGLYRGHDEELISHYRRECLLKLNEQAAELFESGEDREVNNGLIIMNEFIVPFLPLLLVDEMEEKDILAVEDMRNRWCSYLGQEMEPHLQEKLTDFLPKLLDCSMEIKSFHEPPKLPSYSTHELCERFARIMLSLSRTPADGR
Assay: Ubiquitin-Rhodamine 110 Assay for USP25 Activity, Example A-2
Format: biochemical
Details: Example A-2, read-out: USP25 A-2 IC50 range
In short: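 Fluorescence (ex 485, em 535 nm) of cleaved ubiquitin-rhodamine 110 (25 nM, below Km) gave IC50 via 4-parameter logistic fit. Reaction: 45 min, room temperature, citric acid stop, after 30 min compound preincubation with 75 pM USP25-His6 in 20 mM Tris pH 8.0, 3 mM BME, 0.03% BGG, 0.01% Triton X-100; top dose 25 μM.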

| SMILES | IC50 (Ub-Rh110 assay) [nM] | IC50 (Ubiquitin-Rhodamine 110 assay) [nM] |
| --- | --- | --- |
| Cc1ccc2c(N)c(C(=O)N[C@H]3COc4cc(N5CCN[C@H](C)C5)ccc4C3)sc2n1 [Example 2-9, 3-amino-6-methyl-N-((R)-7-((R)-3-methylpiperazin-1-yl)chroman-3-yl)thieno[2,3-b]pyridine-2-carboxamide] | 200 to 2000 |  |
| Cc1ccc2c(N)c(C(=O)N[C@H]3COc4cc(N5CCNCC56COC6)ccc4C3)sc2n1 [Example 2-10] | 50 to 200 |  |
| Cc1cnc2c(N)c(C(=O)N[C@H]3COc4cc(N5CC6CC(C5)N6)ccc4C3)sc2n1 [Example 2-11, N-((3R)-7-(3,6-diazabicyclo[3.1.1]heptan-3-yl)chroman-3-yl)-7-amino-3-methylthieno[2,3-b]pyrazine-6-carboxamide] | 50 to 200 |  |
| Cc1cnc2c(N)c(C(=O)N[C@H]3COc4cc(N5CC6COCC(C5)N6)ccc4C3)sc2n1 [Example 2-12, N-((3R)-7-(3-oxa-7,9-diazabicyclo[3.3.1]nonan-7-yl)chroman-3-yl)-7-amino-3-methylthieno[2,3-b]pyrazine-6-carboxamide] | 200 to 2000 |  |
| Cc1cnc2c(N)c(C(=O)N[C@H]3COc4cc(N5CC6CNCC(C5)O6)ccc4C3)sc2n1 [Example 2-13, N-((3R)-7-(9-oxa-3,7-diazabicyclo[3.3.1]nonan-3-yl)chroman-3-yl)-7-amino-3-methylthieno[2,3-b]pyrazine-6-carboxamide] | 200 to 2000 |  |
| Nc1c(C(=O)N[C@H]2COc3cc(N4CC5CC(C4)N5)ccc3C2)sc2nc(F)ccc12 [Example 2-14, N-((3R)-7-(3,6-diazabicyclo[3.1.1]heptan-3-yl)chroman-3-yl)-3-amino-6-fluorothieno[2,3-b]pyridine-2-carboxamide] | 200 to 2000 |  |
| Cc1nc2sc(C(=O)N[C@H]3COc4cc(N5CC6CC(C5)N6)ccc4C3)c(N)c2cc1F [Example 2-15, N-((3R)-7-(3,6-diazabicyclo[3.1.1]heptan-3-yl)chroman-3-yl)-3-amino-5-fluoro-6-methylthieno[2,3-b]pyridine-2-carboxamide] | 50 to 200 |  |
| COc1nc2sc(C(=O)N[C@H]3COc4cc(N5CCNCC5)ccc4C3)c(N)c2cc1F [Example 2-16, (R)-3-amino-5-fluoro-6-methoxy-N-(7-(piperazin-1-yl)chroman-3-yl)thieno[2,3-b]pyridine-2-carboxamide] | 200 to 2000 |  |
| Cc1cc(C)c2c(N)c(C(=O)N[C@H]3COc4cc(N5CCNCC5)ccc4C3)sc2n1 [Example 2-17, (R)-3-amino-4,6-dimethyl-N-(7-(piperazin-1-yl)chroman-3-yl)thieno[2,3-b]pyridine-2-carboxamide] | 50 to 200 |  |
| Cc1cc(C)c2c(N)c(C(=O)N[C@H]3COc4cc(N5CC6CC(C5)N6)ccc4C3)sc2n1 [Example 2-18, N-((3R)-7-(3,6-diazabicyclo[3.1.1]heptan-3-yl)chroman-3-yl)-3-amino-4,6-dimethylthieno[2,3-b]pyridine-2-carboxamide] | 50 to 200 |  |
| Cc1cc(C)c2c(N)c(C(=O)N[C@H]3COc4cc(N5CC6CNCC(C5)C6(F)F)ccc4C3)sc2n1 [Example 2-19, 3-amino-N-((3R)-7-(9,9-difluoro-3,7-diazabicyclo[3.3.1]nonan-3-yl)chroman-3-yl)-4,6-dimethylthieno[2,3-b]pyridine-2-carboxamide] | 1 to 50 |  |
| Cc1cc(C)c2c(N)c(C(=O)N[C@H]3COc4cc(N5CC6CNCC(C5)O6)ccc4C3)sc2n1 [Example 2-20, N-((3R)-7-(9-oxa-3,7-diazabicyclo[3.3.1]nonan-3-yl)chroman-3-yl)-3-amino-4,6-dimethylthieno[2,3-b]pyridine-2-carboxamide] | 1 to 50 |  |
| Cc1cc(C(F)(F)F)c2c(N)c(C(=O)N[C@H]3COc4cc(N5CC6CC(C5)N6)ccc4C3)sc2n1 [Example 2-21] | 50 to 200 |  |
| Cc1cc(C(F)(F)F)c2c(N)c(C(=O)N[C@H]3COc4cc(N5CC6CNCC(C5)C6(F)F)ccc4C3)sc2n1 [Example 2-22, 3-amino-N-((3R)-7-(9,9-difluoro-3,7-diazabicyclo[3.3.1]nonan-3-yl)chroman-3-yl)-6-methyl-4-(trifluoromethyl)thieno[2,3-b]pyridine-2-carboxamide] | 1 to 50 |  |
| Cc1cc(C(F)(F)F)c2c(N)c(C(=O)N[C@H]3COc4cc(N5CC6CNCC(C5)O6)ccc4C3)sc2n1 [Example 2-23, N-((3R)-7-(9-oxa-3,7-diazabicyclo[3.3.1]nonan-3-yl)chroman-3-yl)-3-amino-6-methyl-4-(trifluoromethyl)thieno[2,3-b]pyridine-2-carboxamide] | 1 to 50 |  |
| O=C(N[C@H]1COc2cc(N3CC4CCC(C3)N4)ccc2C1)c1cnc2c(c1)C1(CCN2)CC1 [Example 2-24, N-((3R)-7-(3,8-diazabicyclo[3.2.1]octan-3-yl)chroman-3-yl)-2′,3′-dihydro-1′H-spiro[cyclopropane-1,4′-[1,8]naphthyridine]-6′-carboxamide] | 200 to 2000 |  |
| O=C(N[C@H]1COc2cc(N3CC4CCC(C3)N4)ccc2C1)c1ccc(NCc2ccccc2)nc1 [Example 2-25, N-((3R)-7-(3,8-diazabicyclo[3.2.1]octan-3-yl)chroman-3-yl)-6-(benzylamino)nicotinamide] | 50 to 200 |  |
| Cc1nc2sc(C(=O)N[C@H]3COc4cc(N5CC6CC(C5)N6)ccc4C3)c(N)c2s1 [Example 2-26, N-((3R)-7-(3,6-diazabicyclo[3.1.1]heptan-3-yl)chroman-3-yl)-6-amino-2-methylthieno[2,3-d]thiazole-5-carboxamide] | 200 to 2000 |  |
| Cc1nc2sc(C(=O)N[C@H]3COc4cc(N5CC6CCCC(C5)N6)ccc4C3)c(N)c2s1 [Example 2-27] | 200 to 2000 |  |
| Cc1nc2sc(C(=O)N[C@H]3COc4cc(N5CC6CNCC(C5)C6(F)F)ccc4C3)c(N)c2s1 [Example 2-28, 6-amino-N-((3R)-7-(9,9-difluoro-3,7-diazabicyclo[3.3.1]nonan-3-yl)chroman-3-yl)-2-methylthieno[2,3-d]thiazole-5-carboxamide] | 50 to 200 |  |
| CCn1ccc2cc(C(=O)N[C@H]3COc4cc(N5CC6CCCC(C5)N6)ccc4C3)nnc21 [Example 2-29, N-((3R)-7-(3,9-diazabicyclo[3.3.1]nonan-3-yl)chroman-3-yl)-7-ethyl-7H-pyrrolo[2,3-c]pyridazine-3-carboxamide] | 200 to 2000 |  |
| CCn1ccc2cc(C(=O)N[C@H]3COc4cc(N5CC6CNCC(C5)C6(F)F)ccc4C3)cnc21 [Example 2-30, N-((3R)-7-(9,9-difluoro-3,7-diazabicyclo[3.3.1]nonan-3-yl)chroman-3-yl)-1-ethyl-1H-pyrrolo[2,3-b]pyridine-5-carboxamide] | 1 to 50 |  |
| Cc1cc(C)c2c(N)c(C(=O)N[C@H]3COc4c(C#N)c(N5CCNCC5)cc(F)c4C3)sc2n1 [Example 2-31, (R)-3-amino-N-(8-cyano-5-fluoro-7-(piperazin-1-yl)chroman-3-yl)-4,6-dimethylthieno[2,3-b]pyridine-2-carboxamide] | 200 to 2000 |  |
| Cc1cc(C)c2c(N)c(C(=O)N[C@H]3COc4cc(N5CCNCC5)c(C#N)c(F)c4C3)sc2n1 [Example 2-32, (R)-3-amino-N-(6-cyano-5-fluoro-7-(piperazin-1-yl)chroman-3-yl)-4,6-dimethylthieno[2,3-b]pyridine-2-carboxamide] | 1 to 50 |  |
| Cc1ccc2c(N)c(C(=O)N[C@H]3COc4cc(N5CC6CNCC(C5)C6(F)F)c(C#N)cc4C3)sc2n1 [Example 2-33, 3-amino-N-((3R)-6-cyano-7-(9,9-difluoro-3,7-diazabicyclo[3.3.1]nonan-3-yl)chroman-3-yl)-6-methylthieno[2,3-b]pyridine-2-carboxamide] | 1 to 50 |  |
| [2H]C([2H])([2H])O[C@H]1CN(c2ccc3c(c2)OC[C@H](NC(=O)c2sc4nc(C)ccc4c2N)C3)C[C@@H]1N [Example 2-38, 3-amino-N-((R)-7-((3S,4S)-3-amino-4-(methoxy-d3)pyrrolidin-1-yl)chroman-3-yl)-6-methylthieno[2,3-b]pyridine-2-carboxamide] | 200 to 2000 |  |
| Cc1cnc2c(N)c(C(=O)N[C@H]3CCc4nc(N5CCNCC5)ccc4C3)sc2n1 [Example 23-6, 7-amino-3-methyl-N-[(6S)-2-(piperazin-1-yl)-5,6,7,8-tetrahydroquinolin-6-yl]thieno[2,3-b]pyrazine-6-carboxamide] |  | 200 to 2000 |
